# According to patent US20120190703A1, “SALTS OF 13A-(S)DESOXYTYLOPHORININE, PREPARATION METHODS AND PHARMACEUTICAL COMPOSITIONS AND USES THEREOF” (priority 2009, published 2012):
# Where “and” joins values, the source holds several entries; their conditions need not be identical. Identical values can stand only once. Like-named read-outs stand apart in the source and are kept apart here. Marks after values point to notes of the source that are not given here.
# Tests used:
# Solubility in water = assay type: physicochemical
# H22 tumor-bearing mice = conditions: intragastric once daily
# From the text: To determine the pharmacodynamic characters of 13a-(S)-deoxytylophorinine and its salts, the impact of these compounds to the tumor growth in H22 tumor-bearing mice was surveyed.
# Male Kunming mice were obtained from the Laboratory Animal Center, Academy of Military Medical Science. Body weight 18˜22 g. 6 animals per group, totally 10 groups, 60 animals.
# (+)-13a-(S)-deoxytylophorinine, (+)-13a-(S)-deoxytylophorinine Tartrate, (+)-13a-(S)-deoxytylophorinine Maleate, (+)-13a-(S)-deoxytylophorinine Citrate, Cytoxane (CTX) as positive control.
# (+)-13a-(S)-deoxytylophorinine was administered at high dose (5 mg/kg) and low dose (2.5 mg/kg). Three (+)-13a-(S)-deoxytylophorinine salts were administered at high dose and low dose as equal moles with their prototype (Tartrate: 7.05 mg/kg, 3.53 mg/kg; Malate: 6.60 mg/kg, 3.30 mg/kg; Citrate: 7.90 mg/kg, 3.95 mg/kg).
# Animals were reared in SPF grade circumstance to be observed for 24 h. The tumor cells liquid which resuscitated in abdominal cavity of KM mice was diluted with aseptic normal saline at 1:3 ratio. The resulting liquid was inoculated subcutaneously at forelimb with 0.2 mL every animal. After the injection over, the animals were divided to […] with 6 animals per group.
# Four experimental samples were intragastric administered once daily 24 h after inoculation. The positive control CTX was intraperitoneal injected once daily. The animal body weight was recorded every day.
# [1] = Drug distribution in brain tissue after oral administration in mice; assay type: in vivo, ICR mice; conditions: for Brain contents of (+)-13a-(S)-deoxytylophorinine (ng/ml), Mean ± SD / Brain contents of (+)-13a-(S)-deoxytylophorinine (ng/ml), individual animals 1-3: 6 mg/kg oral
# Procedure: (§1) Male ICR mice. Body weight 18˜22 g.
# Plasma was isolated by centrifugalization. […] 25% tissue homogenate was prepared with normal saline addition.
# The drug concentration-time data in brain tissue after administered orally of (+)-13a-(S)-deoxytylophorinine tartrate, maleate and citrate were represented in Table 8˜10 and FIG. 6˜8. […] (+)-13a-(S)-deoxytylophorinine could be detected in 5 min. The peak concentration was reached after 15 min, and the compound still can be detected after 2 h after administration.
# [2] = Plasma pharmacokinetics after oral administration in mice
# Procedure: To determine the pharmacokinetic characters of 13a-(S)-deoxytylophorinine and its salts, the studies about plasma pharmacokinetics and the character of distribution in brain were pursued.
# as §1
# (+)-13a-(S)-deoxytylophorinine Tartrate, (+)-13a-(S)-deoxytylophorinine Maleate, (+)-13a-(S)-deoxytylophorinine Citrate. All were dissolved in distilled water as 0.6 mg/ml solution before experiment progressed.
# 72 mice were divided to 3 groups with 24 animals per group, fasting for 16 h and drinking water freely. […] Plasma was isolated by centrifugalization. After the salts were administered orally, the brain tissues of mice were collected at 5 min, 15 min, 2 h time points. 25% tissue homogenate was prepared with normal saline addition. 200 μL of homogenate and plasma were added isovolumic MeCN to precipitate protein. 5 μL of clear supernatant was analyzed by LC/MS/MS.
# (+)-13a-(S)-deoxytylophorinine was dissolved in DMSO and then diluted with MeOH with concentration 10, 50, 100, 500, 1000 and 2500 ng/ml respectively. 10 μl of standard solutions of (+)-13a-(S)-deoxytylophorinine with different concentration above were added to 200 μl of blank plasma sequently to adjust the concentration to 0.5, 2.5, 5, 25, 50, 125 ng/ml respectively. MeCN was added to the solution to precipitate protein, and 5 μl of result clear supernatant was analyzed with LC/MS/MS. Linear regression was ran with the peak area of (+)-13a-(S)-deoxytylophorinine as ordinate and the concentrations as abscissa.
# [3] = high dose × 7 d, equal moles: prototype 5.0, tartrate 7.05, maleate 6.60, citrate 7.90 mg/kg
# [4] = low dose × 7 d, equal moles: prototype 2.5, tartrate 3.53, maleate 3.30, citrate 3.95 mg/kg
# [5] = 6 mg/kg oral, mice, Time (min) 3
# [6] = 6 mg/kg oral, mice, Time (min) 6
# [7] = male, ICR, mouse, plasma, po, 6 mg/kg
structure (smiles),measurement,setting,value
"COc1ccc2c3c(c4cc(OC)c(OC)cc4c2c1)CN1CCC[C@H]1C3.O=C(O)C(O)C(O)C(=O)O [Tartrate, (+)-13a-(S)-deoxytylophorinine Tartrate]",Solubility in water (words),Solubility in water,soluble in water
same,solubility,Solubility in water; water,39 mg/mL
same,Animal No. (Initial/Final),H22 tumor-bearing mice; [3],6/6
same,Body Weight(g) Final,H22 tumor-bearing mice; [3],13.55 ± 1.87 g
same,Body Weight(g) Initial,H22 tumor-bearing mice; [3],22.00 ± 1.55 g⁻¹
same,Inhibition (%),H22 tumor-bearing mice; [3],80.35** %
same,"Tumor Weight (g, mean ± SD)",H22 tumor-bearing mice; [3],0.23 ± 0.15 g
same,Animal No. (Initial/Final),H22 tumor-bearing mice; [4],6/6
same,Body Weight(g) Final,H22 tumor-bearing mice; [4],19.76 ± 2.34 g
same,Body Weight(g) Initial,H22 tumor-bearing mice; [4],21.50 ± 0.84 g⁻¹
same,Inhibition (%),H22 tumor-bearing mice; [4],31.88%
same,"Tumor Weight (g, mean ± SD)",H22 tumor-bearing mice; [4],0.78 ± 0.48 g
same,"Brain contents of (+)-13a-(S)-deoxytylophorinine (ng/ml), Mean ± SD",[1]; Time (min) 5,48.0 ± 21.6 ng/mL
same,"Brain contents of (+)-13a-(S)-deoxytylophorinine (ng/ml), individual animals 1-3",[1]; Time (min) 5,32.4 ng/mL and 38.8 ng/mL and 72.7 ng/mL
same,"Brain contents of (+)-13a-(S)-deoxytylophorinine (ng/ml), Mean ± SD",[1]; Time (min) 15,262.9 ± 11.9 ng/mL
same,"Brain contents of (+)-13a-(S)-deoxytylophorinine (ng/ml), individual animals 1-3",[1]; Time (min) 15,249.3 ng/mL and 271.0 ng/mL and 268.5 ng/mL
same,"Brain contents of (+)-13a-(S)-deoxytylophorinine (ng/ml), Mean ± SD",[1]; Time (min) 120,45.7 ± 33.0 ng/mL
same,"Brain contents of (+)-13a-(S)-deoxytylophorinine (ng/ml), individual animals 1-3",[1]; Time (min) 120,24.7 ng/mL and 28.7 ng/mL and 83.7 ng/mL
same,Drug contents in brain compared with prototype,"[1]; oral, 3 time points",higher than their prototype
same,Peak concentration in blood,"[2]; 6 mg/kg oral, mice",34.2 ± 3.1 ng/mL
same,Time of peak concentration in blood,"[2]; 6 mg/kg oral, mice",15 min
same,t½z,"[2]; 6 mg/kg oral, mice, plasma, non-compartment model",52.8 min
same,"Blood concentration of (+)-13a-(S)-deoxytylophorinine (ng/ml), individual animals 1-3","[2]; 6 mg/kg oral, mice, Time (min) 0.08",18.4 ng/mL and 11.7 ng/mL and 42.0 ng/mL
same,"Blood concentration of (+)-13a-(S)-deoxytylophorinine (ng/ml), individual animals 1-3","[2]; 6 mg/kg oral, mice, Time (min) 0.25",30.6 ng/mL and 36.1 ng/mL and 35.7 ng/mL
same,"Blood concentration of (+)-13a-(S)-deoxytylophorinine (ng/ml), individual animals 1-3","[2]; 6 mg/kg oral, mice, Time (min) 0.5",16.5 ng/mL and 9.0 ng/mL and 7.8 ng/mL
same,"Blood concentration of (+)-13a-(S)-deoxytylophorinine (ng/ml), individual animals 1-3","[2]; 6 mg/kg oral, mice, Time (min) 1",6.2 ng/mL and 10.0 ng/mL
same,"Blood concentration of (+)-13a-(S)-deoxytylophorinine (ng/ml), individual animals 1-3","[2]; 6 mg/kg oral, mice, Time (min) 2",2.5 ng/mL and 12.4 ng/mL and 8.7 ng/mL
same,"Blood concentration of (+)-13a-(S)-deoxytylophorinine (ng/ml), Mean ± SD",[2]; [5],4.5 ± 1.2 ng/mL
same,"Blood concentration of (+)-13a-(S)-deoxytylophorinine (ng/ml), individual animals 1-3",[2]; [5],3.0 ng/mL and 5.0 ng/mL and 5.3 ng/mL
same,"Blood concentration of (+)-13a-(S)-deoxytylophorinine (ng/ml), individual animals 1-3","[2]; 6 mg/kg oral, mice, Time (min) 4",3.3 ng/mL and 4.2 ng/mL and 1.1 ng/mL
same,"Blood concentration of (+)-13a-(S)-deoxytylophorinine (ng/ml), Mean ± SD",[2]; [6],0.4 ± 0.4 ng/mL
same,"Blood concentration of (+)-13a-(S)-deoxytylophorinine (ng/ml), individual animals 1-3",[2]; [6],0.0 ng/mL and 0.2 ng/mL and 0.8 ng/mL
same,concentration at 5 min,"[2]; male, ICR, mouse, plasma, oral, 6 mg/kg, Blood concentration of (+)-13a-(S)-deoxytylophorinine (ng/ml), Mean ± SD, 6 mg/kg oral, mice, Time (min) 0.08",24 ± 15.9 ng/mL
same,concentration at 15 min,"[2]; male, ICR, mouse, plasma, oral, 6 mg/kg, Blood concentration of (+)-13a-(S)-deoxytylophorinine (ng/ml), Mean ± SD, 6 mg/kg oral, mice, Time (min) 0.25",34.2 ± 3.1 ng/mL
same,concentration at 0.5 h,"[2]; male, ICR, mouse, plasma, oral, 6 mg/kg, Blood concentration of (+)-13a-(S)-deoxytylophorinine (ng/ml), Mean ± SD, 6 mg/kg oral, mice, Time (min) 0.5",11.1 ± 4.7 ng/mL
same,concentration at 1 h,"[2]; male, ICR, mouse, plasma, oral, 6 mg/kg, Blood concentration of (+)-13a-(S)-deoxytylophorinine (ng/ml), Mean ± SD, 6 mg/kg oral, mice, Time (min) 1",8.1 ± 2.7 ng/mL
same,concentration at 2 h,"[2]; male, ICR, mouse, plasma, oral, 6 mg/kg, Blood concentration of (+)-13a-(S)-deoxytylophorinine (ng/ml), Mean ± SD, 6 mg/kg oral, mice, Time (min) 2",7.9 ± 5 ng/mL
same,concentration at 4 h,"[2]; male, ICR, mouse, plasma, oral, 6 mg/kg, Blood concentration of (+)-13a-(S)-deoxytylophorinine (ng/ml), Mean ± SD, 6 mg/kg oral, mice, Time (min) 4",2.8 ± 1.6 ng/mL
same,AUC(0-inf),[2]; [7],37.9 ng·h/mL
same,AUC(0-t),[2]; [7],37.4 ng·h/mL
same,Cmax,[2]; [7],34.2 ng/mL
same,MRT inf,[2]; [7],1.63 h
same,MRT last,[2]; [7],1.57 h
same,Tmax,[2]; [7],15 min
